The text below walks through data of patent US9206184B2, “Disubstituted benzothienyl-pyrrolotriazines and uses thereof” (BAYER INTELLECTUAL PROPERTY GmbH, priority 2011, dated 2015).

Structures can show the parent of a compound that is named as a salt.

One assay has as its target human mTOR (Homo sapiens (Human), UniProt P42345). Description: mTOR kinase assay (TR-FRET, for comparative purposes). The format is biochemical. Conditions: mean inhibition at 1 μM test compound; 40 μM ATP. (TR-FRET usually uses a lanthanide donor and a delayed reading to cut background.)
Another assay has as its target human FGFR-3 (Homo sapiens (Human), UniProt P22607). Description: FGFR-3 kinase assay (TR-FRET). The settings on record: 10 μM ATP; 15 min pre-incubation with enzyme; compounds of the invention. The format is biochemical.
Assay [1] relates to Human umbilical vein endothelial cells (HUVEC). As to the kind of experiment: Inhibition of growth factor-mediated cell proliferation (hFGF-2, HUVEC). The format is cell-based. The settings on record: 72 h, read-out: hFGF-2 mediated HUVEC proliferation, IC50 [nM].
The next assay concerns the target human FGFR-1 (Homo sapiens, UniProt P11362). Description: FGFR-1 high ATP kinase assay (TR-FRET). The format is biochemical. Conditions: 2 mM ATP; 15 min pre-incubation with enzyme; compounds of the invention.

Chain of human FGFR-1 (P11362 22-822 limits assumed): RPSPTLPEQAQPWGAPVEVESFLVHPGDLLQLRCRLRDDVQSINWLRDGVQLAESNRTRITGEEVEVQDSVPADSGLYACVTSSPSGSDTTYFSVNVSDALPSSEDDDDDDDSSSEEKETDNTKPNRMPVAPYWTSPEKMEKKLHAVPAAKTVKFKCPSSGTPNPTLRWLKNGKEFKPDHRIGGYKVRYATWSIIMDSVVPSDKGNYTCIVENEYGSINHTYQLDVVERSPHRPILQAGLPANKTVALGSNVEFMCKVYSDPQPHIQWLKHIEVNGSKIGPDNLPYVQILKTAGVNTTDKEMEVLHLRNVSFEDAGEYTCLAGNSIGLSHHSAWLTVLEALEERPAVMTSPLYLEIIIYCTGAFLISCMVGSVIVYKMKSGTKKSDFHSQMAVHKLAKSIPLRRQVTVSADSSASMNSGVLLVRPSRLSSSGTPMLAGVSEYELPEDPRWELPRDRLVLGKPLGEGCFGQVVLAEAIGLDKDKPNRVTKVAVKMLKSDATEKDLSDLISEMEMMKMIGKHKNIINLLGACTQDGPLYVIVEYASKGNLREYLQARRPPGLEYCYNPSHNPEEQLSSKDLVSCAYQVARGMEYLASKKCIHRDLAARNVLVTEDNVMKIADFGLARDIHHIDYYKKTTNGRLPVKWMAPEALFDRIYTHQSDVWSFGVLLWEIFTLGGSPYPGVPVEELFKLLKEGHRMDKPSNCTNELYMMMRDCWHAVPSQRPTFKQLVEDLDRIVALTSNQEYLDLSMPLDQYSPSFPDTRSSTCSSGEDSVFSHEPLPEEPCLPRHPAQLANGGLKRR
Chain of human mTOR (P42345 1360-2549): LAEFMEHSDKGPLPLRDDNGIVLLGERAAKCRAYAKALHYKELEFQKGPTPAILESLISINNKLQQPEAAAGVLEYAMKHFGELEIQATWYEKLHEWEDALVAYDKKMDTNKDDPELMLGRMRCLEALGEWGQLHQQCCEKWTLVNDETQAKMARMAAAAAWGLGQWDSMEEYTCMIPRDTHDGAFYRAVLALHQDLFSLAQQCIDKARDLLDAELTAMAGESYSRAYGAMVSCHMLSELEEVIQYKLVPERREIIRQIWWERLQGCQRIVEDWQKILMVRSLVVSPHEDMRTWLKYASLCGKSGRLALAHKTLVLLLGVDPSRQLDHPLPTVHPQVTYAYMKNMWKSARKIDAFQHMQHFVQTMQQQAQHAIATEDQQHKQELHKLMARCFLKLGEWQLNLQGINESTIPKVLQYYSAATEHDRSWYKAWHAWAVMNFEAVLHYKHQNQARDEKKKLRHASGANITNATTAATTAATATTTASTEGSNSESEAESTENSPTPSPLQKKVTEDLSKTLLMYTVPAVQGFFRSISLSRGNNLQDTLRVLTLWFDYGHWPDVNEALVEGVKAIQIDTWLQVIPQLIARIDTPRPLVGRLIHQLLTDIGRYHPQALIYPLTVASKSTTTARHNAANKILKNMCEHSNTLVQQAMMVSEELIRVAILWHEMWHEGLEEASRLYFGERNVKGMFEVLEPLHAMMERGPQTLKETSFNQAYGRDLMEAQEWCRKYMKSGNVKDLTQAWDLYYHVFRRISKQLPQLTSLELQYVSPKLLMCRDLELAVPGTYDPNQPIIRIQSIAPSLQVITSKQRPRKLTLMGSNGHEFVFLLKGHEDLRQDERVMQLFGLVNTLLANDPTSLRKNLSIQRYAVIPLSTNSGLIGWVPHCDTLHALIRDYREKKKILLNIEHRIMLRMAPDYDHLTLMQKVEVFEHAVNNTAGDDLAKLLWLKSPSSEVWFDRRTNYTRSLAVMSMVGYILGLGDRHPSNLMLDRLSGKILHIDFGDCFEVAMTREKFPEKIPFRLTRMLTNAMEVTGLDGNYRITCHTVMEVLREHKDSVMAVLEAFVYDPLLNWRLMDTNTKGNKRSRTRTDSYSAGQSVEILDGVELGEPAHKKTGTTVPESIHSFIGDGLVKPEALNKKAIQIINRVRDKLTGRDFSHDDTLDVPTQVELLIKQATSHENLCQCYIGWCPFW
Chain of human FGFR-3 (P22607 397-806): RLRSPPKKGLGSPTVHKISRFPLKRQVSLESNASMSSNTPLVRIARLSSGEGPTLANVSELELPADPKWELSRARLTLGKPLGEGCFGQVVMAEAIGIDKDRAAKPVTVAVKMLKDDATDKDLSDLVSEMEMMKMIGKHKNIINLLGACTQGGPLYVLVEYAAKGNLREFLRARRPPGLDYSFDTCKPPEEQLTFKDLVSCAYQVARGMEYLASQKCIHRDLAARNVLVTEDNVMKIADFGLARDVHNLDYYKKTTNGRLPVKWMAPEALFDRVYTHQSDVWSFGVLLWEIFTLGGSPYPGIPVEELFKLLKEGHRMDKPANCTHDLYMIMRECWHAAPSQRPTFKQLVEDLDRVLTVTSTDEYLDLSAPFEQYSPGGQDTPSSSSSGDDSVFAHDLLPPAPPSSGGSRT

`COc1cc(C)cc2cc(-c3c(CN4CCC(O)C4)c(CN4CCNCC4)n4ncnc(N)c34)sc12` (racemic) [Example 42, rac-1-{[4-Amino-5-(7-methoxy-5-methyl-1-benzothiophen-2-yl)-7-(piperazin-1-ylmethyl)pyrrolo-[2,1-f][1,2,4]triazin-6-yl]methyl}pyrrolidin-3-ol trihydrochloride]: the “mTOR inhibition @ 1 μM” value on human mTOR is reported as “no inhib. effect detect”. The IC50 at human FGFR-3 came out at 18.4 nM.

Consider `CCOCc1c(-c2cc3cc(C)cc(OC)c3s2)c2c(N)ncnn2c1CNCC(N)=O` [Example 9, N^2-{[4-Amino-6-(ethoxymethyl)-5-(7-methoxy-5-methyl-1-benzothiophen-2-yl)pyrrolo[2,1-f]-[1,2,4]triazin-7-yl]methyl}glycinamide dihydrochloride], for which, at human mTOR, the “mTOR inhibition @ 1 μM” value is given as “no inhib. effect detect”.

Take `COCc1c(-c2cc3cc(C)cc(OC)c3s2)c2c(N)ncnn2c1CN1CCN(C(C)=O)CC1` [Example 16, 1-(4-{[4-Amino-6-(methoxymethyl)-5-(7-methoxy-5-methyl-1-benzothiophen-2-yl)pyrrolo[2,1-f]-[1,2,4]triazin-7-yl]methyl}piperazin-1-yl)ethanone dihydrochloride]: the IC50 in assay [1] came to 117 nM.

In the case of `CCOCc1c(-c2cc3cc(C)cc(OC)c3s2)c2c(N)ncnn2c1CN1CCNCC1` [Example 18, 6-(Ethoxymethyl)-5-(7-methoxy-5-methyl-1-benzothiophen-2-yl)-7-(piperazin-1-ylmethyl)pyrrolo-[2,1-f][1,2,4]triazin-4-amine], the “mTOR inhibition @ 1 μM” value on human mTOR is “no inhib. effect detect”.

For `COCCOCc1c(-c2cc3cc(C)cc(OC)c3s2)c2c(N)ncnn2c1CN1CCNCC1` [Example 28, 6-[(2-Methoxyethoxy)methyl]-5-(7-methoxy-5-methyl-1-benzothiophen-2-yl)-7-(piperazin-1-ylmethyl)pyrrolo[2,1-f][1,2,4]triazin-4-amine formiate], on human mTOR, the “mTOR inhibition @ 1 μM” value is given as “no inhib. effect detect”. In addition, the results for the IC50 at human FGFR-3 and against human FGFR-1 were 9.7 nM and 2.1 nM, respectively.

In the case of `CCNCc1c(-c2cc3cc(C)cc(OC)c3s2)c2c(N)ncnn2c1CN1CCNCC1` [Example 38, 6-[(Ethylamino)methyl]-5-(7-methoxy-5-methyl-1-benzothiophen-2-yl)-7-(piperazin-1-ylmethyl)pyrrolo[2,1-f][1,2,4]triazin-4-amine trihydrochloride], in assay [1], the IC50 came to 213 nM.

As to `COc1cc(C)cc2cc(-c3c(CNCCO)c(CN4CCNCC4)n4ncnc(N)c34)sc12` [Example 39, 2-({[4-Amino-5-(7-methoxy-5-methyl-1-benzothiophen-2-yl)-7-(piperazin-1-ylmethyl)pyrrolo-[2,1-f][1,2,4]triazin-6-yl]methyl}amino)ethanol trihydrochloride], in assay [1], the IC50 was determined as 365 nM.

For `COc1cc(C)cc2cc(-c3c(CN4CCC(O)CC4)c(CN4CCNCC4)n4ncnc(N)c34)sc12` [Example 41, 1-{[4-Amino-5-(7-methoxy-5-methyl-1-benzothiophen-2-yl)-7-(piperazin-1-ylmethyl)pyrrolo-[2,1-f][1,2,4]triazin-6-yl]methyl}piperidin-4-ol trihydrochloride], the “mTOR inhibition @ 1 μM” value on human mTOR was “no inhib. effect detect”. Besides, the figures for the IC50 on human FGFR-3 and at human FGFR-1 were 7.2 nM and 2.8 nM, respectively.

Turning to `COc1cc(C)cc2cc(-c3c(CN4CCCC4)c(CN4CCNCC4)n4ncnc(N)c34)sc12` [Example 45, 5-(7-Methoxy-5-methyl-1-benzothiophen-2-yl)-7-(piperazin-1-ylmethyl)-6-(pyrrolidin-1-ylmethyl)pyrrolo[2,1-f][1,2,4]triazin-4-amine trihydrochloride], in assay [1], the IC50 came out at 171 nM.

Consider `COc1cc(C)cc2cc(-c3c(CN4CCNC(=O)C4)c(C)n4ncnc(N)c34)sc12` [Example 76, 4-{[4-Amino-5-(7-methoxy-5-methyl-1-benzothiophen-2-yl)-7-methylpyrrolo[2,1-f][1,2,4]triazin-6-yl]methyl}piperazin-2-one], for which the results for the IC50 at human FGFR-3 and at human FGFR-1 were 1.4 nM and 2.8 nM, respectively.

Turning to `COc1cc(C)cc2cc(-c3c(CNCC(C)(C)O)c(C)n4ncnc(N)c34)sc12` [Example 77, 1-({[4-Amino-5-(7-methoxy-5-methyl-1-benzothiophen-2-yl)-7-methylpyrrolo[2,1-f][1,2,4]triazin-6-yl]methyl}amino)-2-methylpropan-2-ol formiate], the IC50 on human FGFR-3 turned out to be 3.8 nM; on human FGFR-1, 1.4 nM.

On to `COc1cc(C)cc2cc(-c3c(CNCC(C)(C)O)c(C)n4ncnc(N)c34)sc12` [Example 78, 1-({[4-Amino-5-(7-methoxy-5-methyl-1-benzothiophen-2-yl)-7-methylpyrrolo[2,1-f][1,2,4]triazin-6-yl]methyl}amino)-2-methylpropan-2-ol], for which the IC50 against human FGFR-3 amounted to 2 nM; on human FGFR-1, 1.7 nM.

For the molecule `COc1cc(C)cc2cc(-c3c(CO)c(Cl)n4ncnc(N)c34)sc12` [Example 79, [4-Amino-7-chloro-5-(7-methoxy-5-methyl-1-benzothiophen-2-yl)pyrrolo[2,1-f][1,2,4]triazin-6-yl]methanol], the IC50 came out at 17.9 nM at human FGFR-3 and 12.6 nM on human FGFR-1.

For the molecule `COc1cc(C)cc2cc(-c3c(CNCC(C)(C)O)c(Cl)n4ncnc(N)c34)sc12` [Example 81, 1-({[4-Amino-7-chloro-5-(7-methoxy-5-methyl-1-benzothiophen-2-yl)pyrrolo[2,1-f][1,2,4]triazin-6-yl]methyl}amino)-2-methylpropan-2-ol formiate], the IC50 came to 0.5 nM against human FGFR-3 and 1.9 nM at human FGFR-1.

Consider `COc1cc(C)cc2cc(-c3c(CNCC(C)(C)O)c(Cl)n4ncnc(N)c34)sc12` [Example 82, 1-({[4-Amino-7-chloro-5-(7-methoxy-5-methyl-1-benzothiophen-2-yl)pyrrolo[2,1-f][1,2,4]triazin-6-yl]methyl}amino)-2-methylpropan-2-ol], for which the IC50 on human FGFR-3 was found to be 16 nM; on human FGFR-1 it was 3.4 nM.

Turning to `COc1cc(C)cc2cc(-c3c(C)c(CN4CCNCC4)n4ncnc(N)c34)sc12` [Example 84, 5-(7-Methoxy-5-methyl-1-benzothiophen-2-yl)-6-methyl-7-(piperazin-1-ylmethyl)pyrrolo[2,1-f]-[1,2,4]triazin-4-amine formiate], the IC50 against human FGFR-3 came out at 16.5 nM; against human FGFR-1 it was 3.7 nM.

As for `COCc1c(-c2cc3cc(C)ccc3s2)c2c(N)ncnn2c1CN1CCNC(=O)C1` [Example 89, 4-{[4-Amino-6-(methoxymethyl)-5-(5-methyl-1-benzothiophen-2-yl)pyrrolo[2,1-f][1,2,4]triazin-7-yl]methyl}piperazin-2-one], the “mTOR inhibition @ 1 μM” value on human mTOR is “no inhib. effect detect”. Further, the IC50 at human FGFR-1 is 82.9 nM.

As for `CCOCc1c(-c2cc3cc(C)cc(OC)c3s2)c2c(N)ncnn2c1C(C)O` (stereo not drawn) [Example 90, 1-[4-Amino-6-(ethoxymethyl)-5-(7-methoxy-5-methyl-1-benzothiophen-2-yl)pyrrolo[2,1-f][1,2,4]-triazin-7-yl]ethanol], the results for the IC50 on human FGFR-3 and against human FGFR-1 were 11 nM and 9.9 nM, respectively.

`CCOCc1c(-c2cc3cc(C)cc(OC)c3s2)c2c(N)ncnn2c1C(O)C1CC1` (stereo not drawn) [Example 91, [4-Amino-6-(ethoxymethyl)-5-(7-methoxy-5-methyl-1-benzothiophen-2-yl)pyrrolo[2,1-f][1,2,4]-triazin-7-yl](cyclopropyl)methanol]: the IC50 against human FGFR-3 amounted to 31.1 nM; against human FGFR-1 it was 52.9 nM.

Consider `CCOCc1c(-c2cc3cc(C)cc(OC)c3s2)c2c(N)ncnn2c1CN1CCNC(=O)C1(C)C` [Example 95], for which the IC50 came out at 28.7 nM at human FGFR-3 and 17 nM on human FGFR-1.

`CCOCc1c(-c2cc3cc(C)cc(OC)c3s2)c2c(N)ncnn2c1CN1CCC(O)CC1` [Example 98]: the “mTOR inhibition @ 1 μM” value at human mTOR is on record as “no inhib. effect detect”. For the same molecule, on human FGFR-1, the IC50 was 17 nM.

For `CCOCc1c(-c2cc3cc(C)cc(OC)c3s2)c2c(N)ncnn2c1CN1CCS(=O)(=O)CC1` [Example 99], the IC50 at human FGFR-3 was determined as 36.9 nM; against human FGFR-1, 24.8 nM.

Turning to `CCOCc1c(-c2cc3cc(C)cc(OC)c3s2)c2c(N)ncnn2c1CN1CC(F)(F)C1` [Example 102], the IC50 against human FGFR-3 was determined as 39.8 nM; on human FGFR-1 it was 39.2 nM.

Regarding `CCOCc1c(-c2cc3cc(C)cc(OC)c3s2)c2c(N)ncnn2c1C(=O)N[C@@H]1CCNC1=O` [Example 106, 4-Amino-6-(ethoxymethyl)-5-(7-methoxy-5-methyl-1-benzothiophen-2-yl)-N-[(3R)-2-oxopyrrolidin-3-yl]pyrrolo[2,1-f][1,2,4]triazine-7-carboxamide], the IC50 on human FGFR-3 stood at 7.1 nM; on human FGFR-1, 6.4 nM.

On to `CCOCc1c(-c2cc3cc(C)cc(OC)c3s2)c2c(N)ncnn2c1C(=O)N1CCNC(=O)C1` [Example 107, 4-{[4-Amino-6-(ethoxymethyl)-5-(7-methoxy-5-methyl-1-benzothiophen-2-yl)pyrrolo[2,1-f]-[1,2,4]triazin-7-yl]carbonyl}piperazin-2-one], for which the “mTOR inhibition @ 1 μM” value on human mTOR is “no inhib. effect detect”. Moreover, the IC50 at human FGFR-3 was 17.4 nM; against human FGFR-1, 9.4 nM.

For the molecule `CCOCc1c(-c2cc3cc(C)cc(OC)c3s2)c2c(N)ncnn2c1C(=O)N(C)C` [Example 114], the IC50 against human FGFR-3 is 9.6 nM; on human FGFR-1, 11.2 nM.

Regarding `CCOCc1c(-c2cc3cc(C)cc(OC)c3s2)c2c(N)ncnn2c1C(=O)N1CNC(=O)C1` [Example 117], the IC50 against human FGFR-3 amounted to 5.3 nM; on human FGFR-1, 8.8 nM.

As for `CCOCc1c(-c2cc3cc(C)cc(OC)c3s2)c2c(N)ncnn2c1C(=O)N1CCS(=O)(=O)C1` [Example 119], at human mTOR, the “mTOR inhibition @ 1 μM” value was “no inhib. effect detect”. The IC50 on human FGFR-3 was found to be 4.5 nM; on human FGFR-1, 9 nM.

Regarding `CCOCc1c(-c2cc3cc(C)cc(OC)c3s2)c2c(N)ncnn2c1C(=O)N1CCC(O)CC1` [Example 121], the “mTOR inhibition @ 1 μM” value on human mTOR was “no inhib. effect detect”. Moreover, the IC50 on human FGFR-3 stood at 24.6 nM; against human FGFR-1, 8.2 nM.
